Publication PMC3412150 (Circulation research, 2012)

Target: Nav1.8 (SCN10A) (Homo sapiens, UniProt Q9Y5Y9)
Assay: whole-cell voltage clamp, transfected ND7/[…] cells
Type: cell-based

Sequence of Nav1.8 (SCN10A) (Q9Y5Y9 whole entry): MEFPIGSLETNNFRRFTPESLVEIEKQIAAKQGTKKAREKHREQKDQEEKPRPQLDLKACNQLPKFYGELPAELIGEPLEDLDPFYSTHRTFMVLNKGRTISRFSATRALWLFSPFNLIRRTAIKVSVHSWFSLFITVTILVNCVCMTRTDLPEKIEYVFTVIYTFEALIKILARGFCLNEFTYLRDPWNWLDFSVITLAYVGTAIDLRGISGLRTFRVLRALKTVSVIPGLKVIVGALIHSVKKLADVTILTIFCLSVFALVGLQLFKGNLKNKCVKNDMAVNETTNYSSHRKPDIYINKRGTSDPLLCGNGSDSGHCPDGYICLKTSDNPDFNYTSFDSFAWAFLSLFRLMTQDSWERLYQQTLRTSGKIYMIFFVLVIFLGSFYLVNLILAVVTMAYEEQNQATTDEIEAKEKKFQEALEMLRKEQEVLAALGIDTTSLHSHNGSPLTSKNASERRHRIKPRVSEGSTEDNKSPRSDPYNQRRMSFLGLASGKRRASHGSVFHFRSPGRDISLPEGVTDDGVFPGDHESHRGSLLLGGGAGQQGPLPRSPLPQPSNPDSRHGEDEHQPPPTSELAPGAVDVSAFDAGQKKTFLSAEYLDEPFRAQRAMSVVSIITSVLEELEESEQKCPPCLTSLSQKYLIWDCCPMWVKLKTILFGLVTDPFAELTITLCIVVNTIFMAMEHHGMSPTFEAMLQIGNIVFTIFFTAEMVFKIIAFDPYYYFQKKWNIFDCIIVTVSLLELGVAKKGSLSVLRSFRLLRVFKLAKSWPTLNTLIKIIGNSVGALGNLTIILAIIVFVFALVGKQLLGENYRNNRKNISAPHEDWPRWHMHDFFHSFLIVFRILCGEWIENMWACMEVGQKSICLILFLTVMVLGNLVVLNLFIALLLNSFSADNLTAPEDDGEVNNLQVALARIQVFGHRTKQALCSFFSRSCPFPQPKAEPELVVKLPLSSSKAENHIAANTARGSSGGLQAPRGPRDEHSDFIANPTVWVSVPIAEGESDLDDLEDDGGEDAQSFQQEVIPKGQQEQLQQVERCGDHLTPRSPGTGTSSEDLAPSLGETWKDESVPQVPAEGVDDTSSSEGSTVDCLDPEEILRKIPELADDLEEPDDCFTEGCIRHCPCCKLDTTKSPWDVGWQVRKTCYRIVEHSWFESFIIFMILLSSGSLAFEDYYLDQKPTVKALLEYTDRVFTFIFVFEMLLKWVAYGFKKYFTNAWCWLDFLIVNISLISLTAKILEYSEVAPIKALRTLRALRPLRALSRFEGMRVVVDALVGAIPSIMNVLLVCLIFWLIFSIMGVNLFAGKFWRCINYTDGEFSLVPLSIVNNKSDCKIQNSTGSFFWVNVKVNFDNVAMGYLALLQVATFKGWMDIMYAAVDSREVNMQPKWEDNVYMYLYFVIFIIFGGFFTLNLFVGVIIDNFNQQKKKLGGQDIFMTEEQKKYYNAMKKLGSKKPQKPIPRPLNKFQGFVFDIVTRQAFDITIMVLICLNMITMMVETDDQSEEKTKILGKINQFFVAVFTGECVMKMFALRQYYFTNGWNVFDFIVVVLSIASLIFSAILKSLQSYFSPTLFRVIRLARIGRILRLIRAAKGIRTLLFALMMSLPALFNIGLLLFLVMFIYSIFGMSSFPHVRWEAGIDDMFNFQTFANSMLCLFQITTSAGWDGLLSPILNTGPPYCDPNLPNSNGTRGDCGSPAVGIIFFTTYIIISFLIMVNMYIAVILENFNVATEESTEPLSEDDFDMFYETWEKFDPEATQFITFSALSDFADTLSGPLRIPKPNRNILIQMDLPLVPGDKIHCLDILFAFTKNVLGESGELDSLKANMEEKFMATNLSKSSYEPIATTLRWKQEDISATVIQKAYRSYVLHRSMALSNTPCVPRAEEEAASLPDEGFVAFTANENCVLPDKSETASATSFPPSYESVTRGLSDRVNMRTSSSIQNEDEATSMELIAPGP

SMILES: COc1cc(NC(=O)c2ccc(-c3ccc(Cl)cc3)o2)cc(OC)c1 [A-803467]
- IC50: ~10 nM
